Source: patent publication US5391800A, “Method for inhibition of cell motility by sphingosine-1-phosphate, its derivatives and mimetics and method of synthesizing sphingosine-1-phosphate and its derivatives” (The Biomembrane Institute, priority 1993, dated 1995)
Entries after “also recorded” stand apart in the source; their conditions may differ.

How the values were obtained:
[1] = Toxicity to B16/F1 melanoma cells, trypan blue exclusion; type: cell-based, mouse; conditions: mouse, b16/f1 cells; B16/F1; 50 μM; 1 hour incubation; control 99; read-out: Cell viability (%)
Protocol: (§1) Effects of SPN derivatives on protein kinase C activity and cell growth of B16/F1 cells was also investigated. […] Toxicity of these compounds to B16/F1 cells and human neutrophils was also examined using a trypan blue exclusion assay after 1 hour incubation with the compounds.

B16/F1 melanoma cells = test: as above; type: cell-based, mouse; conditions: for Toxicity: 45-50 μM, B16/F1 cells, 1 hour
Protocol: as §1

B16/F10 melanoma cells = test: Phagokinetic activity of B16/F10 melanoma cells on gold sol-coated plates; type: cell-based, mouse; conditions: for Cleared area: mean ± S.D., n > 50; for Area cleared by B16/F10 tumor cells: SPN-1-P at 1.0 or 0.1 μM
Protocol: Phagokinetic activity is measured by the ability of cells to ingest foreign particles while moving. […] A uniform coating of gold particles is prepared on glass coverslips precoated with bovine serum albumin, and coverslips are rinsed repeatedly to remove non-adhering or loosely-adhering gold particles. Freshly-prepared neutrophils or tumor cells detached from culture are placed in a Petri dish containing the gold sol-coated plate, and incubated for about 2 hours (for human neutrophils) or about 18 hours (for tumor cells). The coverslips are fixed for 1 hour in a 4% formaldehyde solution in phosphate-buffered saline (PBS) and mounted on microscope slides. The phagokinetic tracks are observed on a television connected to a light microscope (Nikon, Tokyo, Japan). Tracks on the television are transferred to translucent sheets, which are then photocopied. Phagokinetic activity is quantitated by cutting and weighing the swept area in the copy.
A uniform coating of gold particles was prepared on glass coverslips precoated with bovine serum albumin, and the coverslips were rinsed repeatedly to remove non-adhering or loosely-adhering gold particles. Freshly-prepared neutrophils or tumor cells detached from culture were placed in a Petri dish containing the gold sol-coated plate, and incubated for 2 hours (for human neutrophils) or 18 hours (for tumor cells). The coverslips were fixed for 1 hour in 4% formaldehyde solution in phosphate-buffered saline (PBS) and mounted on microscope slides. The phagokinetic tracks were observed on a television connected to a light microscope (Nikon, Tokyo, Japan). Tracks on the television were transferred to translucent sheets, which were then photocopied. Phagokinetic activity was quantitated by cutting and weighing the swept area in the copy.

B16/F1 cells [2] = test: Phagokinetic activity of B16/F1 cells on gold sol-coated plates; type: cell-based, mouse; conditions: FIGS. 11A-F, SPN-1-P at 1.0 or 0.1 μM
Protocol: Phagokinetic activity is measured by the ability of cells to ingest foreign particles while moving. Cell motility can be estimated as the area of a phagokinetic track on gold sol particle-coated plates as previously described {Albrecht-Buehler, Cell, 11:395 (1977)}. A uniform coating of gold particles is prepared on glass coverslips precoated with bovine serum albumin, and coverslips are rinsed repeatedly to remove non-adhering or loosely-adhering gold particles. Freshly-prepared neutrophils or tumor cells detached from culture are placed in a Petri dish containing the gold sol-coated plate, and incubated for about 2 hours (for human neutrophils) or about 18 hours (for tumor cells). The coverslips are fixed for 1 hour in a 4% formaldehyde solution in phosphate-buffered saline (PBS) and mounted on microscope slides. The phagokinetic tracks are observed on a television connected to a light microscope (Nikon, Tokyo, Japan). Tracks on the television are transferred to translucent sheets, which are then photocopied. Phagokinetic activity is quantitated by cutting and weighing the swept area in the copy.
Cell motility was estimated as the area of phagokinetic track on gold sol particle-coated plates as previously described {Albrecht-Buehler, Cell, 11:395 (1977)}. […] Phagokinetic activity was quantitated by cutting and weighing the swept area in the copy. […]

[3] = tested on: PKC of B16/F1 melanoma cells; test: PKC activity of B16/F1 melanoma cells (32P incorporation into histone IIIS); type: biochemical, mouse; conditions: for % PKC activity: control = 100%, mean ± S.E., n = 3; for Inhibitory effect on PKC activity: B16/F1 cells; for PKC inhibition: concentration not given
Protocol: as §1
*Mean ± S.E. (n = 3). For controls (defined as 100%), PKC activity was
33225 cpm per tube per 20 min, as measured by ^32 P incorporation int

B16/F1 cells [4] = test: Uptake and metabolic conversion of 3H-SPN and 14C-TMS in B16/F1 cells; type: in vitro ADME, mouse; conditions: for Incorporation into B16/F1 cells: 3H-labeled SPN, 14C-labeled TMS; for Metabolic conversion: B16/F1 cells
From the text: FIGS. 12A and 12B depict the time-course uptake of ^3 H-SPN (FIG. 12A) and ^14 C-TMS (FIG. 12B) by B16/F1 cells. The ordinate represents % radioactivity taken up by B16/F1 cells and the abscissa represents time in hours.
FIGS. 13A-13C depict the time-course changes in labeling of various SPN derivatives after addition of ^3 H-SPN to B16/F1 cells:
FIG. 13A: thin-layer chromatography (TLC) of lipids separated from Folch's lower phase;
FIG. 13B: TLC of lipids separated from Folch's upper phase followed by incubation with ^14 C-TMS and extraction;
FIG. 13C: TLC of lipids separated from Folch's upper phase.
Lane 1, 0 minute. Lane 2, 10 minutes. Lane 3, 30 minutes. Lane 4, 1 hour. Lane 5, 2 hours. Lane 6, 4 hours. Lane 7, 20 hours. CER represents ceramide; CMH represents ceramide monohexoside; PE represents phosphatidyl-ethanolamine; SM represents sphingomyelin; TMS represents N,N,N-trimethylsphingosine; SPN represents sphingosine; SPN-1-P represents sphingosine-1-phosphate; and ORG represents the origin.
In addition, the uptake and metabolic conversion of SPN vs. TMS was investigated. […] Rapid conversion of SPN into sphingosine-1-phosphate is clearly indicated by the appearance of bands corresponding to SPN-1-P prior to conversion into Cer. The SPN-1-P peak appeared after 10 minutes incubation, whereas the Cer peak appeared after 1 hour incubation.

[5] = Mus musculus, B16-F10, 1.0 μM, 18 hours, read-out: % of control (CM+) value
[6] = 3H-SPN, in the presence of D-PDMP

Row | SMILES | viability at 1 h, 50 µM [1] | Toxicity (B16/F1 melanoma cells) | Cleared area less control (CM-) value (B16/F10 melanoma cells; 1.0 μM, 18 hours) | Cleared area (B16/F10 melanoma cells; 1.0 μM, 18 hours) | activity at 1 µM (B16/F10 melanoma cells; [5]) | Area cleared by B16/F10 tumor cells (B16/F10 melanoma cells) | Area cleared by tumor cells (B16/F1 cells [2]) | Inhibitory effect on PKC activity ([3]; 75 μM) | % PKC activity ([3]; 75 μM) | PKC inhibition [3] | Incorporation into B16/F1 cells (B16/F1 cells [4]) | Metabolic conversion (B16/F1 cells [4]) | also measured
1 | CCCCCCCCCCCCC/C=C/[C@@H](O)[C@@H](N)COP(=O)(O)O [SPN-1-P, sphingosine-1-phosphate] | 72% | weak toxicity | 0.3 × 10^3 μm^2 | 2.4 ± 1.1 × 10^3 μm^2 | 6% | greatly reduced | greatly reduced | no inhibitory effect | 108 ± 32% | does not inhibit PKC |  |  | Cytotoxicity, comparison (B16/F1 melanoma cells; concentration not given): far less cytotoxic than SPN, DMS, or TMS; Cleared area less control (CM-) value (B16/F10 melanoma cells; 0.0001 μM, 18 hours): 3.9 × 10^3 μm^2; Cleared area (B16/F10 melanoma cells; 0.0001 μM, 18 hours): 6.0 ± 2.7 × 10^3 μm^2; Cleared area less control (CM-) value (B16/F10 melanoma cells; 0.01 μM, 18 hours): 2.0 × 10^3 μm^2; Cleared area (B16/F10 melanoma cells; 0.01 μM, 18 hours): 4.1 ± 1.4 × 10^3 μm^2; Cleared area less control (CM-) value (B16/F10 melanoma cells; 0.1 μM, 18 hours): 1.3 × 10^3 μm^2; Cleared area (B16/F10 melanoma cells; 0.1 μM, 18 hours): 3.4 ± 1.3 × 10^3 μm^2; activity at 0.0001 µM (B16/F10 melanoma cells; Mus musculus, B16-F10, 0.0001 μM, 18 hours, read-out: % of control (CM+) value): 81%; activity at 0.01 µM (B16/F10 melanoma cells; Mus musculus, B16-F10, 0.01 μM, 18 hours, read-out: % of control (CM+) value): 42%; activity at 0.1 µM (B16/F10 melanoma cells; Mus musculus, B16-F10, 0.1 μM, 18 hours, read-out: % of control (CM+) value): 27%; % PKC activity ([3]; 10 μM): 121 ± 10%
2 | CCCCCCCCCCCCC/C=C/[C@@H](O)[C@@H](N)CO [SPN, sphingosine] | 21% | very toxic | 0.4 × 10^3 μm^2 | 2.5 ± 1.0 × 10^3 μm^2 | 8% | reduced the area cleared by tumor cells | reduced the area cleared by tumor cells | strong inhibitory effect | 34 ± 7% |  | rapidly incorporated | rapidly converted into SPN-1-P and ceramide; also recorded: can be converted to SPN-1-P | Appearance of Cer peak after incubation with SPN (B16/F1 cells [4]; [6]): 1 h; Appearance of SPN-1-P peak after incubation with SPN (B16/F1 cells [4]; [6]): 10 min
3 | CCCCCCCCCCCCC/C=C/[C@@H](O)[C@H](CO)[N+](C)(C)C [TMS, N,N,N-trimethylsphingosine] |  |  | 3.5 × 10^3 μm^2 | 5.6 ± 2.7 × 10^3 μm^2 | 73% | reduced the area cleared by tumor cells |  | strong inhibitory effect | 16 ± 3% | in striking contrast to DMS and TMS, SPN-1-P does not inhibit PKC | rapidly incorporated | unchanged regardless of incubation time; also recorded: cannot be phosphorylated | 
